We go through 1 substance from US20060099568A1, “Signals and molecular species involved in senescence” (priority 2002, published 2006).

Common to all, as to assay type: cell-based, human
The subject of one assay is CREB. As to the kind of experiment: CREB phosphorylation, Western blot with anti-phospho-CREB antibody. As to conditions: near-senescent fibroblasts; 30 μg/ml LPA. The protocol:
(§1) FIG. 10 represents LPA-dependent PKA activity and CREB phosphorylation in presenescent and near-senescent fibroblasts. Subconfluent presenescent (passage 8, Pa 8) and near-senescent (passage 24, Pa 24) fibroblasts were serum-starved for 2 days and treated with 30 μg/ml LPA for the indicated times. The PKA activity (A) was determined in cell homogenates with kemptide and [γ^32P]ATP as substrates. The radioactivity incorporated into kemptide was measured by a beta-counter and the enzyme activity was calculated as pmol/min/mg protein. The data represents an average of triplicate experiments. The level of phospho-CREB (B) was measured by Western blot analysis using an anti-phospho-CREB antibody.
The expression levels of signaling proteins were examined by Western blot analysis, as described previously (Yeo et al., 2000a). […] The protein concentrations of the lysates were determined using a BCA protein assay kit, as described by the protocol supplied by the manufacturer. […] To examine the level of phospholipase D 1/2, the immunoprecipitated protein obtained using 10 μl of anti-phospholipase D 1 anti-sera (Box45, ESTP4) was analyzed by Western blot against polyclonal anti-phospholipase D 1 antibodies (1:20 dilution of NC STP4 anti-serum).

The next assay relates to ERK1 and ERK2. As to the kind of experiment: ERK activation, phospho-ERK Western blot. The protocol:
Serum-starved presenescent (passage 10, Pa 10) and near-senescent (passage 29, Pa 29) fibroblasts were treated with 30 μg/ml LPA for the indicated times. The level of phospho-ERK in the cytosolic fraction from each cell, as an indication of ERK activation, was measured by Western blot analysis employing anti-phospho-ERK antibody.
The expression levels of signaling proteins were examined by Western blot analysis, as described previously (Yeo et al., 2000a). Total cell lysates were prepared in a lysis buffer containing 50 mM Tris-HCl, pH 7.5, containing 150 mM NaCl, 2 mM EDTA, 1 mM EGTA, 1 mM Na3VO4, 10 mM NaF, 1 mM DTT, 1 mM PMSF, 25 μg/ml leupeptin, 25 μg/ml aprotinin, 5 mM benzamidine, and 1% Nonidet P-40. The protein concentrations of the lysates were determined using a BCA protein assay kit, as described by the protocol supplied by the manufacturer. Cell lysates containing equal amounts of protein were resolved by SDS-polyacrylamide gel electrophoresis and transferred onto Immobilon PVDF membranes. […] To examine the level of phospholipase D 1/2, the immunoprecipitated protein obtained using 10 μl of anti-phospholipase D 1 anti-sera (Box45, ESTP4) was analyzed by Western blot against polyclonal anti-phospholipase D 1 antibodies (1:20 dilution of NC STP4 anti-serum).

In the next assay the test system is PKA. As to the kind of experiment: measurement of protein kinase A activity (Kemptide, [γ-32P]ATP). As to conditions: 30 μg/ml LPA. The method, then:
as §1
LPA-treated cells were harvested and homogenized in ice-cold homogenization buffer containing 0.25 M sucrose, 10 mM Tris-HCl, pH 7.5, 10 MM MgCl2, 2 mM EGTA, and protease inhibitors. Homogenates were centrifuged at 20,000×g at 4° C. for 20 min. Protein kinase A assays were performed as described previously (Yang et al., 1999). […] The paper was washed once with 0.75% phosphoric acid and the radioactivity incorporated into Kemptide was quantified on a scintillation counter (Model Tri-Carb 1600 CA, Packard Instrument Company). […] PKI-inhibitable kinase activity was calculated and the data were reported as percent of total PKA activity. […]

The subject of the next assay is cellular cAMP. Description: measurement of cyclic AMP accumulation (cAMP binding assay). The method, then:
FIG. 9 represents LPA-induced alteration of cellular cAMP content in presenescent and near-senescent fibroblasts. Subconfluent presenescent (passage 8, Pa 8) and near-senescent (passage 24, Pa 24) fibroblasts were serum-starved for 2 days and treated with LPA: A, 1-70 μg/ml LPA for 30 min; B, 30 μg/ml LPA for the indicated times. The level of cAMP in the acid extracts was measured by cAMP binding assay. The data represents an average of triplicate experiments.
Subconfluent near-senescent (passage 26, Pa 26) fibroblasts were serum-starved for 2 days and treated with 30 μg/ml LPA for the indicated times in the absence or presence of 10 μM PKC inhibitor bisindolylmaleiamide (bIM). The level of cAMP in the acid extracts was measured by cAMP binding assay. The data represents an average of triplicate experiments.
Cells grown on a 12 well-plate were serum-starved by incubating with SFM for 2 days. After the cells were equilibrated in the fresh SFM medium for 1 hour, they were treated with LPA as described in the figure. The reaction was terminated by removing the medium and by adding 2.5 M perchloric acid. The acid extract was stored at −20° C. until use. The acid extract was neutralized with 4.2 M KOH and the cAMP content was determined by competitive binding with [^3H]cAMP to the cAMP binding protein, RIα of cAMP-dependent protein kinase, as described by Jang and Juhnn (2001). After the extraction, cells were lyzed with 0.1 N NaOH and analyzed for protein content using the Bradford protein assay reagent. The cAMP content was normalized to the amount of acid-insoluble protein.

As for lysophosphatidic acid [LPA], the CREB phosphorylation entry with CREB is on record as “correlated well with cAMP accumulation”. In addition, the “level of phospho-ERK” value in the assay with ERK1 and ERK2 (near-senescent HDF (passage 29), 30 μg/ml LPA) is “did not increase further”. In the assay on ERK1 and ERK2 (presenescent HDF (passage 10), 30 μg/ml LPA for 10-30 min), the “ERK1 and ERK2 activation (phospho-ERK)” value is reported as “stimulated”. Moreover, the PKA activity entry in the assay with PKA (near-senescent cells) is “increased”; in the assay on PKA (presenescent cells), “decreased”. In the assay on cellular cAMP (near-senescent fibroblasts, 30 μg/ml LPA for 60 min), the “increase of cellular cAMP content” value is 70-80%. Also, in the assay with cellular cAMP (near-senescent fibroblasts, 30 min, LPA 1-70 μg/ml), the “increase of cellular cAMP” value was 31-77%. In addition, the “decrease of cellular cAMP” value in the assay on cellular cAMP (presenescent fibroblasts, 30 min, LPA 1-70 μg/ml) is recorded as 33-43%.
